Reference: patent US8404696B2, “Quinazoline-2,4-dione derivative, and medical compositions for the prophylaxis and treatment of cranial nerve disease containing the same” (Shin Poong Pharmaceutical Co., Ltd., priority 2008, dated 2013)

Experiments:
[1] = test system: middle cerebral artery occlusion (MCAO) model; test: Anti-stroke effect in middle cerebral artery occlusion (MCAO) model, oral administration before inducing stroke; format: in vivo, rats of SD species; conditions: 100 mg/kg po; for Infarcted volume (Mean ± standard deviation): negative control 0.45 ± 0.03
[2] = test system: SH-SY5Y cells; test: Inhibitory effect on ZnSO4-mediated cytotoxicity (MTT assay); format: cell-based, humans; conditions: compound 50 μg/ml; 600 μM zinc sulfate, 24 hours
Protocol: SH-SY5Y cells were cultured with 3×10^4 cell concentration in 96 well plates, and the compound (50 μg/ml) was treated. After 30 minutes, 600 μM of zinc sulfate was treated to induce toxicity for 24 hours and survival rate of cells was measured by MTT assay.

[3] = test system: thoracic aorta of rats; test: Relaxing effect on thoracic aorta contracted by phenylephrine (organ bath); design: species or system rats of SD species; conditions: for Relaxation percentage (Mean ± standard deviation): n = 3
Procedure, shortened: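 Thoracic aortic rings (2 mm) from ether-anesthetized male SD rats (250-300 g) were mounted in Krebs buffer gassed with 95% O2/5% CO2 and equilibrated at 1.0 g basal tension for 90 min. After stable contraction with phenylephrine (0.5 μM), compounds were added and relaxation recorded.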

[4] = treatment time 0 (right before inducing ischemic stroke)
[5] = treatment time 1 (an hour before inducing ischemic stroke)

CC(=O)N(CCCCNCCCn1c(=O)[nH]c2ccccc2c1=O)CCCn1c(=O)[nH]c2ccccc2c1=O [Compound 3, N-[3-(2,4-dioxo-1,4-dihydro-2H-quinazolin-3-yl)propyl]-N-{4-[3-(2,4-dioxo-1,4-dihydro-2H-quinazolin-3-yl)propylamino]butyl}acetamide]
Inhibitory percentage compared to negative control [1, 4]: 69.8% | Infarcted volume (Mean ± standard deviation) [1, 4]: 0.14 ± 0.02 cm^3 | Inhibitory percentage compared to negative control [1, 5]: 22.3% | Infarcted volume (Mean ± standard deviation) [1, 5]: 0.35 ± 0.07 cm^3 | inhibitory percentage, zinc-induced toxicity [2]: 17.6 ± 3.5% | Relaxation percentage (Mean ± standard deviation) ([3]; 50 μg/mL, phenylephrine 0.5 μM): 16.2 ± 4.4% | Relaxation percentage (Mean ± standard deviation) ([3]; 100 μg/mL, phenylephrine 0.5 μM): 44.2 ± 8.5% | Relaxation percentage (Mean ± standard deviation) ([3]; 200 μg/mL, phenylephrine 0.5 μM): 65.6 ± 7.1% | Relaxation of thoracic aorta contracted by phenylephrine, dose dependence ([3]; 50, 100 and 200 μg/mL): dose-dependently relaxed the thoracic aorta of rats contracted by phenylephrine | inhibition at 67 µg/mL ([3]; Rattus norvegicus, 67 μg/mL, phenylephrine 0.5 μM, mean n = 3, read-out: Relaxation percentage): 27.4%
